How the values were obtained:
[1] = tested on: mouse sensory neurons activated by mix of GPCR agonists (histamine, serotonin, bradykinin); experiment: Calcium flux in sensory neurons activated by mix of GPCR agonists; format: cell-based; conditions: serotonin 10 μM each, pretreatment with increasing amounts of compound
Protocol: (§1) FIG. 4: C12-Asn-GABA inhibits neuronal activation via the GABA B receptor. Amplitude of intracellular calcium mobilization (ΔF/F; right panel) in mouse sensory neurons and percentage of responding neurons (left panel) pretreated with increasing amounts of C12-Asn-GABA (black circle) or vehicle (HBSS; white circle) and treated with capsaicin (125 nM; A) or a mix of G protein coupled receptor agonists (histamine, serotonin and bradykinin 10 μM each; B). Data are represented as mean±SEM; n=4 independent experiments of 3 wells per condition and 30-80 neurons per well. […] Percentage of responding neurons pretreated with increasing amounts of saclofen (black circle) or vehicle (HBSS; white circle) and treated with C12-Asn-GABA (10 μM) and capsaicin (125 nM; C) or a mix of G protein coupled receptor agonist (histamine, serotonin and bradykinin 10 μM each; D). Data are represented as mean±SEM; n=4 independent experiments of 3 wells per condition and 30-80 neurons per well.
Male C57B16 mice (6-8 weeks) were used to produce primary cultures of dorsal root ganglia (DRG) sensory neurons for calcium flux experiments, and to perform studies of colorectal distention and intestinal isotonic contraction. All procedures were approved by Institutional Animal Care Committees (CEEA 122). […]

[2] = tested on: mouse sensory neurons activated by capsaicin; experiment: Calcium flux in sensory neurons activated by capsaicin (TRPV1 agonist); format: cell-based; conditions: capsaicin 125 nM; pretreatment with increasing amounts of compound
Protocol: as §1
FIG. 7: C14-Asn-GABA inhibits neuronal activation by capsaicin. Amplitude of intracellular calcium mobilization (F/F; A) in mouse sensory neurons and percentage of responding neurons (B) pretreated with 10 μM of C14-Asn-GABA (black bar) or vehicle (HBSS; white bar) and treated with capsaicin (125 nM). Data are represented as mean±SEM; n=3 independent experiments of 3 wells per condition and 35-82 neurons per well.
(§2) Male C57B16 mice (6-8 weeks) were used to produce primary cultures of dorsal root ganglia (DRG) sensory neurons for calcium flux experiments, and to perform studies of colorectal distention and intestinal isotonic contraction. All procedures were approved by Institutional Animal Care Committees (CEEA 122).
To determine whether C12-Asn-GABA or C12-Asn-BABA is capable of signaling to sensory nerves, calcium mobilization studies were performed on primary cultures of mouse dorsal root ganglia (DRG) neurons. […]

[3] = tested on: mouse dorsal root ganglia (DRG) neurons; experiment: Calcium mobilization in primary DRG sensory neurons, basal (unstimulated); format: cell-based; conditions: 10 μM
Protocol: as §2
To determine whether C12-Asn-GABA or C12-Asn-BABA is capable of signaling to sensory nerves, calcium mobilization studies were performed on primary cultures of mouse dorsal root ganglia (DRG) neurons. […] The same experiments were thereafter performed in neurons activated by either an agonist of the receptor calcium channel TRPV1 (capsaicin) or by a mix of agonists (histamine, serotonin and bradykinin) for G protein coupled receptors (GPCR) implicated in visceral hypersensitivity. Exposure of neurons to either capsaicin (125 nM) or the mix of GPCR agonists (histamine, bradykinin, serotonin, 10 μM each) induced an increase in calcium flux as shown by the higher % of responding neurons and amplitude of the response (ΔF/F) compared to the vehicle (FIG. 4A, 4B). […] To investigate whether the inhibitory effect of C12-Asn-GABA was associated to the GABA residue, neurons were treated with saclofen (10, 50, and 100 μM), a competitive antagonist of the GABAB receptor. […]

[4] = tested on: Caco-2 cells; experiment: Paracellular permeability, 4 kDa FITC-dextran flux across Caco-2 monolayer; format: cell-based, human; conditions: 10 μM apical, 24 h
Protocol: FIG. 5: C12-Asn-GABA crosses the epithelial barrier without modifying epithelial cells physiology. Caco-2 cells were cultivated into transwell chambers. After treatment with C12-Asn-GABA (800 ng) at the apical side, C12-Asn-GABA was quantified inside the cells and both the apical and basolateral compartments by LC-MS/MS (A); data are represented as mean±SEM, n=3 experiments of 3 wells per condition. Extracted ion chromatogram at the exact mass of GABA (104.0702 m/z) with a mass accuracy of 5 ppm of the GABA commercial standard (GABA (Std.) and apical and basolateral compartments after loading or not Caco-2 cells with 800 ng of GABA at the apical site (B); representation of one well, n=3 experiments of 3 wells per condition. Paracellular permeability assessed by the passage of FITC-dextran loaded at the apical side (C) and CXCL8 secretion assessed by ELISA (D) were monitored after treatment of Caco-2 cells at the apical side with C12-Asn-GABA (10 μM); data are represented as mean±SEM, n=3 experiments of 3 wells per condition. […]
To assess the effect of C12-Asn-GABA on paracellular permeability, transport of dextran 4 kDa FITC across a Caco-2 cell monolayer was investigated. […] In parallel, the release of CXCL8 from Caco-2 cells into the medium, of both apical and basolateral sides of the transwell, was assessed by ELISA. […]

CCCCCCCCCCCC(=O)NC(CC(N)=O)C(=O)NCCCC(=O)O (stereo not shown) [C12-Asn-GABA, C11 C(O)-Asn-gamma-aminobutyric acid]
calcium flux increase induced by mix of GPCR agonists (% responding neurons, amplitude ΔF/F) [1]: prevented by C12-Asn-GABA pretreatment in a dose-dependent manner
calcium flux increase induced by capsaicin (% responding neurons, amplitude ΔF/F) [2]: prevented by C12-Asn-GABA pretreatment in a dose-dependent manner
calcium mobilization under basal (unstimulated) conditions [3]: does not induce calcium mobilization
percentage of 4 kDa FITC traversing the cell monolayers (paracellular permeability) [4]: not modified
